Source: ChEMBL document CHEMBL4043140, “Synthesis of different heterocycles-linked chalcone conjugates as cytotoxic agents and tubulin polymerization inhibitors” (Bioorg Med Chem, 2017)
Calls of active or inactive are those of the source. No cut-off for these calls is given here.

What was measured:
[1] = system: PC-3; experiment: Antiproliferative activity against human PC3 cells after 48 hrs by MTT assay; assay type: functional, cell-based; conditions: PC-3, 48 h
[2] = Antiproliferative activity against human U87 cells after 48 hrs by MTT assay; assay type: functional, cell-based, U-87MG ATCC; conditions: U-87 MG
[3] = system: HCT-116; experiment: Antiproliferative activity against human HCT116 cells after 48 hrs by MTT assay; assay type: functional, cell-based; conditions: HCT-116, 48 h
[4] = system: NCI-H460; experiment: Antiproliferative activity against human NCI-H460 cells after 48 hrs by MTT assay; assay type: functional, cell-based; conditions: NCI-H460, 48 h
[5] = system: HCT-15; experiment: Antiproliferative activity against human HCT15 cells after 48 hrs by MTT assay; assay type: functional, cell-based; conditions: HCT-15, 48 h
[6] = system: DU-145; experiment: Antiproliferative activity against human DU145 cells after 48 hrs by MTT assay; assay type: functional, cell-based; conditions: DU-145, 48 h
[7] = system: A549; experiment: Antiproliferative activity against human A549 cells after 48 hrs by MTT assay; assay type: functional, cell-based; conditions: A549, 48 h
[8] = system: NCI-H460; experiment: Cell cycle arrest in human NCI-H460 cells assessed as accumulation at G2/M phase at 5 uM after 24 hrs by propidium iodide staining-based flow cytometry (reference value: 34.71%); assay type: functional
[9] = system: NCI-H460; experiment: Cell cycle arrest in human NCI-H460 cells assessed as accumulation at G0/G1 phase at 5 uM after 24 hrs by propidium iodide staining-based flow cytometry (reference value: 49.17%); assay type: functional
[10] = system: NCI-H460; experiment: Cell cycle arrest in human NCI-H460 cells assessed as accumulation at G0/G1 phase at 2.5 uM after 24 hrs by propidium iodide staining-based flow cytometry (reference value: 49.17%); assay type: functional
[11] = system: NCI-H460; experiment: Cell cycle arrest in human NCI-H460 cells assessed as accumulation at S phase at 2.5 uM after 24 hrs by propidium iodide staining-based flow cytometry (reference value: 15.55%); assay type: functional
[12] = system: NCI-H460; experiment: Induction of apoptosis in human NCI-H460 cells assessed as reduction in viable cells at 1.25 to 5 uM after 48 hrs by phase contrast microscopic analysis; assay type: functional, cell-based
[13] = system: NCI-H460; experiment: Cell cycle arrest in human NCI-H460 cells assessed as accumulation at G2/M phase at 2.5 uM after 24 hrs by propidium iodide staining-based flow cytometry (reference value: 34.71%); assay type: functional
[14] = system: NCI-H460; experiment: Induction of apoptosis in human NCI-H460 cells assessed as horse-shoe shaped nuclei at 2.5 to 10 uM after 24 hrs by DAPI staining-based fluorescence microscopic analysis; assay type: functional, cell-based
[15] = system: NCI-H460; experiment: Induction of morphological changes in human NCI-H460 cells assessed as […] deformation at 1.25 to 5 uM after 48 hrs by phase contrast microscopic analysis; assay type: functional, cell-based
[16] = Inhibition of porcine brain tubulin polymerization after 1 hr in presence of GTP by fluorescence assay; design: species or system Sus scrofa
[17] = system: NCI-H460; experiment: Cell cycle arrest in human NCI-H460 cells assessed as accumulation at S phase at 1.25 uM after 24 hrs by propidium iodide staining-based flow cytometry (reference value: 15.55%); assay type: functional
[18] = system: NCI-H460; experiment: Induction of reactive oxygen species generation in human NCI-H460 cells after 6 hrs by DCFDA staining-based method; assay type: functional, cell-based
[19] = system: NCI-H460; experiment: Cell cycle arrest in human NCI-H460 cells assessed as accumulation at S phase at 5 uM after 24 hrs by propidium iodide staining-based flow cytometry (reference value: 15.55%); assay type: functional
[20] = system: NCI-H460; experiment: Cell cycle arrest in human NCI-H460 cells assessed as accumulation at G2/M phase at 1.25 uM after 24 hrs by propidium iodide staining-based flow cytometry (reference value: 34.71%); assay type: functional
[21] = system: NCI-H460; experiment: Cell cycle arrest in human NCI-H460 cells assessed as accumulation at G0/G1 phase at 1.25 uM after 24 hrs by propidium iodide staining-based flow cytometry (reference value: 49.17%); assay type: functional
[22] = system: NCI-H460; experiment: Induction of morphological changes in human NCI-H460 cells assessed as cell shrinkage at 1.25 to 5 uM after 48 hrs by phase contrast microscopic analysis; assay type: functional, cell-based
[23] = system: NCI-H460; experiment: Induction of reactive oxygen species generation in human NCI-H460 cells after 6 hrs in presence of NAC by DCFDA staining-based method; assay type: functional, cell-based

SMILES	IC50 [1] [µM]	IC50 [3] [µM]	IC50 [4] [µM]	IC50 [5] [µM]	IC50 [6] [µM]	IC50 [7] [µM]	IC50 [2] [µM]	other results
COc1ccc(C(=O)/C=C/c2ccc(OCCCN3CCc4ccccc43)c(OC)c2)cc1	> 20	> 20	> 20	19.9	16.1	18.7	15.2	–
COc1cc(/C=C/C(=O)c2ccc(Cl)cc2Cl)ccc1OCCCN1CCc2ccccc21	> 20	19.2	> 20	> 20	> 20	> 20	19.8	–
COc1ccc(C(=O)/C=C/c2ccc(OCCCN3CCCc4ccccc43)c(OC)c2)cc1	> 20	> 20	> 20	> 20	> 20	> 20	18.2	–
COc1ccc(/C=C\c2cc(OC)c(OC)c(OC)c2)cc1O [COMBRETASTATIN A4]	3.53	9.12	0.048	8.87	0.28	9.29	9.75	–
COc1cc(/C=C/C(=O)c2ccc(C)cc2)ccc1OCCCN1CC(C)OC(C)C1 (stereo unspecified)	> 20	5.45	> 20	8.69	> 20	9.12	4.21	–
COc1cc(/C=C/C(=O)c2ccc(Br)cc2)ccc1OCCCN1CCCc2ccccc21	> 20	> 20	> 20	> 20	> 20	19.1	> 20	–
COc1cc(/C=C/C(=O)c2ccc(Cl)cc2)ccc1OCCCN1CCCc2ccccc21	> 20	> 20	> 20	> 20	18.1	> 20	16.2	–
COc1cc(/C=C/C(=O)c2ccccc2)ccc1OCCCN1CCCc2ccccc21	> 20	> 20	> 20	> 20	> 20	> 20	19.8	–
COc1cc(/C=C/C(=O)c2ccccc2OC)ccc1OCCCN1CC(C)OC(C)C1 (stereo unspecified)	> 20	6.48	8.1	6.36	3.87	5.32	5.03	–
COc1ccc(C(=O)/C=C/c2ccc(OCCCN3CC(C)OC(C)C3)c(OC)c2)cc1 (stereo unspecified)	> 20	7.87	4.18	8.64	3.27	7.42	5.67	–
COc1ccc(C(=O)/C=C/c2ccc(OCCCN3CCCCC3)c(OC)c2)cc1	9.53	1.73	1.48	5.34	5.08	3.29	6.3	Activity [8]: 48.85%; Activity [9]: 42.8%; Activity [10]: 46.74%; Activity [11]: 9.3%; Activity [12]: Active; Activity [13]: 42.88%; Activity [14]: Active; Activity [15]: Active; IC50 [16]: 9.66 µM; Activity [17]: 12.21%; Activity [18]: Dose-dependent effect; Activity [19]: 8.12%; Activity [20]: 39.3%; Activity [21]: 47.5%; Activity [22]: Active; Activity [23]: inactive

The remaining molecules from weak to strong by IC50 [1], led by results:

IC50 [1] [µM]	IC50 [3] [µM]	IC50 [4] [µM]	IC50 [5] [µM]	IC50 [6] [µM]	IC50 [7] [µM]	SMILES	IC50 [2] [µM]	other results
9.19	> 20	9.96	7.54	8.74	8.21	COc1ccc(C(=O)/C=C/c2ccc(OCCN3CCOCC3)c(OC)c2)cc1	7.09	–
9.18	> 20	> 20	> 20	> 20	> 20	COc1cc(/C=C/C(=O)c2ccccc2)ccc1OCCCCN1CCCCC1	> 20	–
8.93	> 20	8.16	> 20	17.1	16.5	COc1cc(/C=C/C(=O)c2ccc(Br)cc2)ccc1OCCCN1CCCCC1	> 20	–
8.89	> 20	> 20	> 20	9.74	12.1	COc1cc(/C=C/C(=O)c2ccc(Br)cc2)ccc1OCCN1CCOCC1	> 20	–
8.87	> 20	> 20	> 20	> 20	> 20	COc1cc(/C=C/C(=O)c2ccc(Cl)cc2Cl)ccc1OCCCN1CC(C)OC(C)C1 (stereo unspecified)	> 20	–
8.17	> 20	> 20	> 20	> 20	> 20	COc1cc(/C=C/C(=O)c2ccc(Cl)cc2Cl)ccc1OCCCN1CCCc2ccccc21	> 20	–
7.89	6.78	9.89	11	2.02	5.36	COc1ccc(C(=O)/C=C/c2ccc(OCCCN3CCOCC3)c(OC)c2)cc1	7.12	–
7.54	> 20	> 20	8.97	> 20	9.06	COc1cc(/C=C/C(=O)c2ccc(Br)cc2)ccc1OCCCCN1CCCCC1	4.01	–
7.29	> 20	16.3	> 20	5.73	9.48	COc1cc(/C=C/C(=O)c2ccc(Cl)cc2Cl)ccc1OCCCCN1CCCCC1	6.09	–
6.84	> 20	10.2	8.11	7.74	8.99	COc1cc(/C=C/C(=O)c2ccc(Cl)cc2)ccc1OCCCCN1CCCCC1	8.01	–
6.17	> 20	> 20	> 20	> 20	19.1	COc1cc(/C=C/C(=O)c2ccc(C(F)(F)F)cc2)ccc1OCCN1CCOCC1	> 20	–
5.12	19.9	> 20	18.2	6.74	> 20	COc1cc(/C=C/C(=O)c2ccc(Cl)cc2Cl)ccc1OCCN1CCOCC1	> 20	–
4.78	3.97	8.96	4.03	5.74	3.7	COc1ccc(C(=O)/C=C/c2ccc(OCCCn3nc(C)cc3C)c(OC)c2)cc1	6.93	–
1.95	2.01	1.63	3.24	2.73	3.13	COc1cc(/C=C/C(=O)c2ccccc2O)ccc1OCCCN1CCCCC1	2.87	–
